The assay relates to CAL51 cell proliferation. In words: Cell Titer Glo Proliferation Assay (CAL51). Format: cell-based, human. To be noted: Homo sapiens, read-out: Act. Level. The gist of the method: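 Viability is measured by CellTiter-Glo luminescence after 72 h of compound exposure. CAL51 cells were seeded in growth medium with 10% FBS and 2 mM glutamine, cultured overnight, then dosed with compound dilutions, vehicle held at 0.2% DMSO.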
A general note: Cellular ATP, detected with luciferase, serves as a proxy for viable cell number.

Where [1] appears, read: CAL-51, CAL51 cell proliferation, 72 h, Cell Titer Glo luminescence.

pIC50: −log10 of the molar value. Where two headings read alike, the source gives them in different places. A value given as a limit tells only on which side of the number the result lay.

For the molecule `Cc1cc(C(=O)N(C)C)ccc1Nc1nc(O[C@H]2CCOC2)c2c(-c3ccncc3)c[nH]c2n1` [Example 176, (S)-N,N,3-trimethyl-4-(5-(pyridin-4-yl)-4-(tetrahydrofuran-3-yloxy)-7H-pyrrolo[2,3-d]pyrimidin-2-ylamino)benzamide], under setting [1], the pIC50 was 6.40 to 7.00.

For `CNC(=O)c1ccc(Nc2nc(OC3CCCC3)c3c(-c4cccc(C(C)(C)O)c4)c[nH]c3n2)c(OC)c1` [Example 47, 4-(4-(cyclopentyloxy)-5-(3-(2-hydroxypropan-2-yl)phenyl)-7H-pyrrolo[2,3-d]pyrimidin-2-ylamino)-3-methoxy-N-methylbenzamide], the pIC50 under setting [1] is 6.00 to 6.40.

Take `COc1cc(C(=O)N(C)CC#N)ccc1Nc1nc(OC2CCCC2)c2c(-c3ccc4nc(C)oc4c3)c[nH]c2n1` [Example 263, N-(cyanomethyl)-4-(4-(cyclo-pentyloxy)-5-(2-methylbenzo[d]oxazol-6-yl)-7H-pyrrolo[2,3-d]pyrimidin-2-ylamino)-3-methoxy-N-methylbenzamide]: the pIC50 under setting [1] was over 7.00.

In the case of `CNC(=O)c1ccc(Nc2nc(O[C@H]3CCOC3)c3c(-c4ccnc(C)c4)c[nH]c3n2)c(OC)c1` [Example 178, (S)-3-methoxy-N-methyl-4-(5-(2-methylpyridin-4-yl)-4-(tetrahydrofuran-3-yloxy)-7H-pyrrolo [2,3-d]pyrimidin-2-ylamino) benzamide], the pIC50 under setting [1] was over 7.00.

Take `CNC(=O)c1ccc(Nc2nc(OC(C)C)c3c(-c4ccnc(NC)c4)c[nH]c3n2)c(OC)c1` [Example 199, 4-(4-isopropoxy-5-(2-(methylamino)pyridin-4-yl)-7H-pyrrolo[2,3-d]pyrimidin-2-ylamino)-3-methoxy-N-methylbenzamide]: the pIC50 under setting [1] is over 7.00.

As to `COc1cc(C(=N)N)ccc1Nc1nc(OC2CCCC2)c2c(-c3ccc4nc(C)oc4c3)c[nH]c2n1` [Example 287, 4-(4-(cyclopentyloxy)-5-(2-methylbenzo[d]oxazol-6-yl)-7H-pyrrolo[2,3-d]pyrimidin-2-ylamino)-3-methoxybenzimidamide], the pIC50 under setting [1] was 5.00 to 6.00.

Regarding `CNC(=O)c1ccc(Nc2nc(OC3CCOCC3)c3c(-c4ccnc(OC)c4)c[nH]c3n2)c(OC)c1` [Example 143, 3-methoxy-4-(5-(2-methoxypyridin-4-yl)-4-(tetrahydro-2H-pyran-4-yloxy)-7H-pyrrolo[2,3-d]pyrimidin-2-ylamino)-N-methylbenzamide], the pIC50 under setting [1] is over 7.00.

`COc1cc(S(C)(=O)=O)c(F)cc1Nc1nc(OC2CCCC2)c2c(-c3ccc4nc(C)oc4c3)c[nH]c2n1` [Example 261, 4-(cyclopentyloxy)-N-(5-fluoro-2-methoxy-4-(methylsulfonyl)phenyl)-5-(2-methylbenzo[d]oxazol-6-yl)-7H-pyrrolo[2,3-d] pyrimidin-2-amine]: the pIC50 under setting [1] was 6.40 to 7.00.

For `CNC(=O)c1ccc(Nc2nc(NC3CC3)c3c(-c4cnn(C)c4)c[nH]c3n2)c(OC)c1` [Example 211, 4-(4-(cyclopropylamino)-5-(1-methyl-1H-pyrazol-4-yl)-7H-pyrrolo[2,3-d]pyrimidin-2-ylamino)-3-methoxy-N-methylbenzamide], the pIC50 under setting [1] was 6.40 to 7.00.

In the case of `CNC(=O)c1ccc(Nc2nc(OC3CCOCC3)c3c(-c4ccc(OC)nc4)c[nH]c3n2)c(OC)c1` [Example 119, 3-methoxy-4-(5-(6-methoxypyridin-3-yl)-4-(tetrahydro-2H-pyran-4-yloxy)-7H-pyrrolo[2,3-d]pyrimidin-2-ylamino)-N-methylbenzamide], the pIC50 under setting [1] was over 7.00.

Take `COc1cc(C(=O)N(C)CCC#N)ccc1Nc1nc(OC2CCCC2)c2c(-c3ccc4nc(C)oc4c3)c[nH]c2n1` [Example 248, N-(2-cyanoethyl)-4-(4-(cyclo-pentyloxy)-5-(2-methylbenzo[d]oxazol-6-yl)-7H-pyrrolo[2,3-d]pyrimidin-2-ylamino)-3-methoxy-N-methylbenzamide]: the pIC50 under setting [1] is over 7.00.

For `CNC(=O)c1ccc(Nc2nc(OC3CCCC3)c3c(-c4ccc(O)cc4)c[nH]c3n2)cc1` [Example 1, 4-(4-(cyclopentyloxy)-5-(4-hydroxyphenyl)-7H-pyrrolo[2,3-d]pyrimidin-2-ylamino)-N-methylbenzamide], the pIC50 (CAL-51, 72 h) was over 7.00.

Regarding `Cc1nc2ccc(-c3c[nH]c4nc(Nc5ccc(C(=O)N(C)C)cc5C)nc(O[C@H]5CCOC5)c34)cc2o1` [Example 98, (S)-N,N,3-trimethyl-4-(5-(2-methylbenzo[d]oxazol-6-yl)-4-(tetrahydrofuran-3-yloxy)-7H-pyrrolo[2,3-d]pyrimidin-2-ylamino)benzamide], the pIC50 under setting [1] was over 7.00.

As to `CNC(=O)c1ccc(Nc2nc(OC3CCCC3)c3c(-c4ccc(O)cc4)c[nH]c3n2)c(F)c1` [Example 15, 4-(4-(cyclopentyloxy)-5-(4-hydroxyphenyl)-7H-pyrrolo[2,3-d]pyrimidin-2-ylamino)-3-fluoro-N-methylbenzamide], under setting [1], the pIC50 was over 7.00.

For `CNC(=O)c1cc(C)c(Nc2nc(OC3CCCC3)c3c(-c4ccc5nc(C)oc5c4)c[nH]c3n2)c(OC)c1` [Example 298, 4-(4-(cyclopentyloxy)-5-(2-methylbenzo[d]oxazol-6-yl)-7H-pyrrolo[2,3-d]pyrimidin-2-ylamino)-3-methoxy-N,5-dimethylbenzamide], the pIC50 under setting [1] is 5.00 to 6.00.

As for `CNC(=O)c1ccc(Nc2nc(OC3CCCC3)c3c(-c4ccc(CO)cc4)c[nH]c3n2)c(OC)c1` [Example 23, 4-(4-(cyclopentyloxy)-5-(4-(hydroxymethyl)phenyl)-7H-pyrrolo[2,3-d]pyrimidin-2-ylamino)-3-methoxy-N-methylbenzamide], the pIC50 under setting [1] was 6.40 to 7.00.

On to `CNC(=O)c1ccc(Nc2nc(OC3CCCC3)c3c(-c4ccc(N)c(O)c4)c[nH]c3n2)c(OC)c1` [Example 294, 4-(5-(4-amino-3-hydroxyphenyl)-4-(cyclopentyloxy)-7H-pyrrolo [2,3-d]pyrimidin-2-ylamino)-3-methoxy-N-methylbenzamide], for which the pIC50 under setting [1] was 6.40 to 7.00.

Turning to `Cc1nc2ccc(-c3c[nH]c4nc(Nc5ccnn5C)nc(OC5CCCC5)c34)cc2o1` [Example 295, 4-(cyclopentyloxy)-N-(1-methyl-1H-pyrazol-5-yl)-5-(2-methylbenzo[d]oxazol-6-yl)-7H-pyrrolo[2,3-d]pyrimidin-2-amine], the pIC50 under setting [1] was 6.40 to 7.00.

For the molecule `CNC(=O)c1ccc(Nc2nc(OC3CCCC3)c3c(-c4cccc(OC)c4)c[nH]c3n2)c(OC)c1` [Example 60, 4-(4-(cyclopentyloxy)-5-(3-methoxyphenyl)-7H-pyrrolo[2,3-d]pyrimidin-2-ylamino)-3-methoxy-N-methylbenzamide], the pIC50 under setting [1] is 6.40 to 7.00.

For `COc1cc(C(=O)NCCN)ccc1Nc1nc(OC2CCCC2)c2c(-c3ccc4nc(C)oc4c3)c[nH]c2n1` [Example 100, N-(2-aminoethyl)-4-(4-(cyclopentyl-oxy)-5-(2-methylbenzo[d]oxazol-6-yl)-7H-pyrrolo[2,3-d]pyrimidin-2-ylamino)-3-methoxybenzamide], the pIC50 under setting [1] is over 7.00.

On to `CNC(=O)c1ccc(Nc2nc(OC3CCOCC3)c3c(-c4ccnnc4)c[nH]c3n2)c(OC)c1` [Example 269, 3-methoxy-N-methyl-4-(5-(pyridazin-4-yl)-4-(tetrahydro-2H-pyran-4-yloxy)-7H-pyrrolo[2,3-d]pyrimidin-2-ylamino)benzamide], for which, under setting [1], the pIC50 is 6.00 to 6.40.

On to `CNC(=O)c1ccc(Nc2nc(OC3CCCC3)c3c(-c4ccc(NS(C)(=O)=O)cc4)c[nH]c3n2)c(OC)c1` [Example 32, 4-(4-(cyclopentyloxy)-5-(4-(methylsulfonamido)phenyl)-7H-pyrrolo[2,3-d]pyrimidin-2-ylamino)-3-methoxy-N-methylbenzamide], for which the pIC50 under setting [1] was over 7.00.

Consider `CNC(=O)c1ccc(Nc2nc(OC)c3c(-c4ccc(-c5ncc[nH]5)cc4)c[nH]c3n2)c(OC)c1` [Example 141, 4-(5-(4-(1H-imidazol-2-yl)phenyl)-4-methoxy-7H-pyrrolo[2,3-d]pyrimidin-2-ylamino)-3-methoxy-N-methylbenzamide], for which the pIC50 under setting [1] is 6.40 to 7.00.

Turning to `CNC(=O)c1ccc(Nc2nc(OC3CCCC3)c3c(-c4ccc(C(=N)N)cc4)c[nH]c3n2)c(OC)c1` [Example 245, 4-(5-(4-carbamimidoylphenyl)-4-(cyclopentyloxy)-7H-pyrrolo[2,3-d]pyrimidin-2-ylamino)-3-methoxy-N-methylbenzamide], the pIC50 under setting [1] is 5.00 to 6.00.

With `Cc1cc(C(=O)N(C)C)ccc1Nc1nc(OC2CCOCC2)c2c(-c3ccncc3)c[nH]c2n1` [Example 93, N,N,3-trimethyl-4-(5-(pyridin-4-yl)-4-(tetrahydro-2H-pyran-4-yloxy)-7H-pyrrolo[2,3-d]pyrimidin-2-ylamino)benzamide], under setting [1], the pIC50 is over 7.00.

Turning to `CNC(=O)c1ccc(-c2c[nH]c3nc(Nc4ccc(C(=O)NC)cc4C)nc(O[C@H]4CCOC4)c23)cc1` [Example 153, (S)-N,3-dimethyl-4-(5-(4-(methylcarbamoyl)phenyl)-4-(tetrahydrofuran-3-yloxy)-7H-pyrrolo[2,3-d]pyrimidin-2-ylamino)benzamide], under setting [1], the pIC50 was over 7.00.

`CNC(=O)c1ccc(Nc2nc(OC)c3c(-c4cnn(C)c4)c[nH]c3n2)c(OC)c1` [Example 177, 3-methoxy-4-(4-methoxy-5-(1-methyl-1H-pyrazol-4-yl)-7H-pyrrolo [2,3-d]pyrimidin-2-ylamino)-N-methylbenzamide]: the pIC50 under setting [1] is 6.40 to 7.00.

Regarding `CNC(=O)c1ccc(Nc2nc(OC3CCOCC3)c3c(-c4ccc5nc(C)oc5c4C)c[nH]c3n2)c(OC)c1` [Example 135, 4-(5-(2,7-dimethylbenzo[d]oxazol-6-yl)-4-(tetrahydro-2H-pyran-4-yloxy)-7H-pyrrolo[2,3-d]pyrimidin-2-ylamino)-3-methoxy-N-methylbenzamide], the pIC50 under setting [1] was 5.00 to 6.00.

In the case of `CCOc1ccc(-c2c[nH]c3nc(Nc4ccc(C(=O)N(C)C)cc4C)nc(OC4CCOCC4)c23)cn1` [Example 109, 4-(5-(6-ethoxypyridin-3-yl)-4-(tetrahydro-2H-pyran-4-yloxy)-7H-pyrrolo[2,3-d]pyrimidin-2-ylamino)-N,N,3-trimethylbenzamide], the pIC50 under setting [1] is over 7.00.

(Values after US9346812B2, “Substituted pyrrolopyrimidine compounds, compositions thereof, and methods of treatment therewith” (Signal Pharmaceutical LLC, priority 2013, dated 2016).)
